These results are taken from patent publication US20240158393A1, “PYRIDONE COMPOUNDS AND METHODS OF USE” (Exelixis, Inc., priority 2021, published 2024).

One experiment deals with T1, Human Mer (Homo sapiens, UniProt Q12866).
T1 construct: Human Mer (residues R557-E882 with H628Q and R794A, 0.7 nM); purchased Eurofins Pharma Discovery Services UK Limited (KinaseProfiler service)
T1 sequence (Q12866 557-882 limits assumed): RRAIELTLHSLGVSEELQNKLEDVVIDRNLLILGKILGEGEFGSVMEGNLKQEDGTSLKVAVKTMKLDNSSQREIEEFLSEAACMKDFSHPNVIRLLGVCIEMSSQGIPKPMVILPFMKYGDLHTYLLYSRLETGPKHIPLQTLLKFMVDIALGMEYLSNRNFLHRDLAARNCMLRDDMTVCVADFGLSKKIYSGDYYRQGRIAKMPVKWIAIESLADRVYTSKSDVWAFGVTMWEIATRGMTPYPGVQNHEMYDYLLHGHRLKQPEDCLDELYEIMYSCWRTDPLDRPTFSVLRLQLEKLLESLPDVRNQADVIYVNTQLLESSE
Briefly: Human Mer kinase assay (33P radiometric / HTRF KinEase). The class given is biochemical. Particulars: protocols of Examples C-1 and/or C-2. In a few lines:
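Two formats yield IC50 values. HTRF KinEase used MER residues 528-999 with ATP at Km (40 μM), 1 μM biotin-peptide, 60 min RT, […], 10 concentrations. 33P filter assay used 0.7 nM Mer R557-E882 (H628Q/R794A), 10 μM ATP, 250 μM peptide, 40 min RT, top 1 μM.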
Background: TR-FRET usually uses a lanthanide donor and a delayed reading to cut background.

In the next experiment the target is T2, Human Met (Homo sapiens, UniProt P08581).
T2 construct: Human MET (residues 956-1390)
T2 sequence (P08581 974-1390 limits assumed): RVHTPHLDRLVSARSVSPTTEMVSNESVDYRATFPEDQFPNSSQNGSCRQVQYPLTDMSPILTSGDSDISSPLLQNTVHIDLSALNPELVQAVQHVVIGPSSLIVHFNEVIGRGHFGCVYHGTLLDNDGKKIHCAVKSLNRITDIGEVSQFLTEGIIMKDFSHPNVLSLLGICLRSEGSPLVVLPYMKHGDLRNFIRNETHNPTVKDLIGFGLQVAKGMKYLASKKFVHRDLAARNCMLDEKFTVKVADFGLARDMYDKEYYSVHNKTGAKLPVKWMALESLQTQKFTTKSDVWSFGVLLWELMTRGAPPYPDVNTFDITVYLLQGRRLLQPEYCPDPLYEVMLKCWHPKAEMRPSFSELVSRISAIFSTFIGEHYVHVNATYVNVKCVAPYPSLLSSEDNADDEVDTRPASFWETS
Nature of the experiment: Human Met kinase assay (33P radiometric / HTRF KinEase). The class given is biochemical. Particulars: protocols of Examples D-1 and/or D-2; read-out: c-Met IC50. In short, it runs like this: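 Two formats gave IC50s by curve fitting. HTRF KinEase used MET residues 956-1390 with 1 μM biotin-peptide and 3.0 μM ATP (Km) for 40 min at room temperature, ten doses in 3% DMSO, 665/620 nm read. The 33P transfer assay used mutant Met R974-S1390 A1209G/V1290L (3.4 nM), 10 μM ATP, 250 μM peptide, pH 7.0, 40 min, nine doses from 1 μM.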

pIC50: −log10 of the molar value.

As for `COCCOc1cc2nccc(Oc3ccc(NC(=O)c4cnc(C)c(C5=CCOCC5)c4O)cc3F)c2nc1OC` [Compound 35, 5-(3,6-Dihydro-2H-pyran-4-yl)-N-[3-fluoro-4-[[6-methoxy-7-(2-methoxyethoxy)-1,5-naphthyridin-4-yl]oxy]phenyl]-4-hydroxy-6-methylpyridine-3-carboxamide], the pIC50 against Human Mer and on Human Met was no less than 7.00 each time.

In the case of `COCCOc1cc2nccc(Oc3ccc(NC(=O)c4cnc(C)c(/C=C/C5CCCC5)c4O)cc3F)c2nc1OC` [Compound 36, 5-[(E)-2-Cyclopentylethenyl]-N-[3-fluoro-4-[[6-methoxy-7-(2-methoxyethoxy)-1,5-naphthyridin-4-yl]oxy]phenyl]-4-hydroxy-6-methylpyridine-3-carboxamide], the pIC50 against Human Mer and on Human Met was no less than 7.00 in each case.

On to `COCCOc1cc2nccc(Oc3ccc(NC(=O)c4cnc(C)c(/C=C/C5CC5)c4O)cc3F)c2nc1OC` [Compound 37, 5-[(E)-2-Cyclopropylethenyl]-N-[3-fluoro-4-[[6-methoxy-7-(2-methoxyethoxy)-1,5-naphthyridin-4-yl]oxy]phenyl]-4-hydroxy-6-methylpyridine-3-carboxamide], for which the pIC50 against Human Mer and on Human Met was no less than 7.00 throughout.

On to `COc1cc2nccc(Oc3ccc(NC(=O)c4c(C)ccn(C(C)C)c4=O)cc3F)c2nc1OC` [Compound 38, N-[4-[(6,7-Dimethoxy-1,5-naphthyridin-4-yl)oxy]-3-fluorophenyl]-4-methyl-2-oxo-1-propan-2-ylpyridine-3-carboxamide], for which the pIC50 at Human Mer was no less than 7.00; at Human Met, less than 6.52.

For `COc1cc2nccc(Oc3ccc(NC(=O)c4c(C)ccn(C(C)C)c4=O)cc3)c2nc1OC` [Compound 39, N-[4-[(6,7-Dimethoxy-1,5-naphthyridin-4-yl)oxy]phenyl]-4-methyl-2-oxo-1-propan-2-ylpyridine-3-carboxamide], the results for the pIC50 against Human Mer and on Human Met were no less than 7.00 and less than 6.52, respectively.

With `COCCOc1cc2nccc(Oc3ccc(NC(=O)c4cnc(C)c(/C=C/C(C)(C)C)c4O)cc3F)c2nc1OC` [Compound 40, 5-[(E)-3,3-Dimethylbut-1-enyl]-N-[3-fluoro-4-[[6-methoxy-7-(2-methoxyethoxy)-1,5-naphthyridin-4-yl]oxy]phenyl]-4-hydroxy-6-methylpyridine-3-carboxamide], the pIC50 against Human Mer and on Human Met was no less than 7.00 each time.

For `COCCOc1cc2nccc(Oc3ccc(NC(=O)c4c(C)nc(C)c(C5=CCCC5)c4O)cc3F)c2nc1OC` [Compound 41, 5-(Cyclopenten-1-yl)-N-[3-fluoro-4-[[6-methoxy-7-(2-methoxyethoxy)-1,5-naphthyridin-4-yl]oxy]phenyl]-4-hydroxy-2,6-dimethylpyridine-3-carboxamide], the negative logarithm of the IC50 (pIC50) at Human Mer and at Human Met was no less than 7.00 throughout.

As for `COCCOc1cc2nccc(Oc3ccc(NC(=O)c4c(C)n(C)c(C)c(C5=CCCC5)c4=O)cc3F)c2nc1OC` [Compound 42, 5-(Cyclopenten-1-yl)-N-[3-fluoro-4-[[6-methoxy-7-(2-methoxyethoxy)-1,5-naphthyridin-4-yl]oxy]phenyl]-1,2,6-trimethyl-4-oxopyridine-3-carboxamide], the negative-log IC50 (pIC50) against Human Mer and at Human Met was no less than 7.00 in each case.

Turning to `COCCOc1cc2nccc(Oc3ccc(NC(=O)c4c(C)nc(C)c(C5=CCOCC5)c4O)cc3F)c2nc1OC` [Compound 43, 5-(3,6-Dihydro-2H-pyran-4-yl)-N-[3-fluoro-4-[[6-methoxy-7-(2-methoxyethoxy)-1,5-naphthyridin-4-yl]oxy]phenyl]-4-hydroxy-2,6-dimethylpyridine-3-carboxamide], the pIC50 against Human Mer and on Human Met was no less than 7.00 each time.

Turning to `COCCOc1cc2nccc(Oc3ccc(NC(=O)c4c(O)c(C5=CCOCC5)c(C)[n+](C)c4C)cc3F)c2nc1OC` [Compound 44, 5-(3,6-Dihydro-2H-pyran-4-yl)-N-[3-fluoro-4-[[6-methoxy-7-(2-methoxyethoxy)-1,5-naphthyridin-4-yl]oxy]phenyl]-1,2,6-trimethyl-4-oxopyridine-3-carboxamide], the negative-log IC50 (pIC50) against Human Mer and at Human Met was no less than 7.00 throughout.

Turning to `COCCOc1cc2nccc(Oc3ccc(NC(=O)c4c(C)n(C)c(C)c(/C=C/C(C)(C)C)c4=O)cc3F)c2nc1OC` [Compound 45, 5-[(E)-3,3-Dimethylbut-1-enyl]-N-[3-fluoro-4-[[6-methoxy-7-(2-methoxyethoxy)-1,5-naphthyridin-4-yl]oxy]phenyl]-1,2,6-trimethyl-4-oxopyridine-3-carboxamide], the pIC50 against Human Mer and at Human Met was no less than 7.00 each time.

In the case of `COc1cc2nccc(Oc3ccc(NC(=O)c4c(C)n(C)c(C)c(C5CC5)c4=O)cc3F)c2nc1OC` [Compound 46, 5-Cyclopropyl-N-[4-[(6,7-dimethoxy-1,5-naphthyridin-4-yl)oxy]-3-fluorophenyl]-1,2,6-trimethyl-4-oxopyridine-3-carboxamide], the negative logarithm of the IC50 (pIC50) is no less than 7.00 against Human Mer and less than 6.52 at Human Met.

As to `COc1cc2nccc(Oc3cc(F)c(NC(=O)c4c(C)n(C)c(C)c(C5CC5)c4=O)cc3F)c2nc1OC` [Compound 47, 5-Cyclopropyl-N-[4-[(6,7-dimethoxy-1,5-naphthyridin-4-yl)oxy]-2,5-difluorophenyl]-1,2,6-trimethyl-4-oxopyridine-3-carboxamide], the pIC50 against Human Mer was no less than 7.00; at Human Met, less than 6.52.

Take `COc1cc2nccc(Oc3ccc(NC(=O)c4c(C)n(C)c(C)c(C5CC5)c4=O)cc3)c2nc1OC` [Compound 48, 5-Cyclopropyl-N-[4-[(6,7-dimethoxy-1,5-naphthyridin-4-yl)oxy]phenyl]-1,2,6-trimethyl-4-oxopyridine-3-carboxamide]: the pIC50 against Human Mer and at Human Met was less than 6.52 in each case.

For the compound `COc1cc2nccc(Oc3ccc(NC(=O)c4c(C)n(C)c(C)c(/C=C/C(C)(C)C)c4=O)cc3F)c2nc1OC` [Compound 49, N-[4-[(6,7-Dimethoxy-1,5-naphthyridin-4-yl)oxy]-3-fluorophenyl]-5-[(E)-3,3-dimethylbut-1-enyl]-1,2,6-trimethyl-4-oxopyridine-3-carboxamide], the figures for the pIC50 against Human Mer and on Human Met were no less than 7.00 and less than 6.52, respectively.

Regarding `COc1cc2nccc(Oc3ccc(NC(=O)c4c(C)n(C)c(C)c(/C=C/C5CC5)c4=O)cc3F)c2nc1OC` [Compound 50, 5-[(E)-2-Cyclopropylethenyl]-N-[4-[(6,7-dimethoxy-1,5-naphthyridin-4-yl)oxy]-3-fluorophenyl]-1,2,6-trimethyl-4-oxopyridine-3-carboxamide], the negative-log IC50 (pIC50) against Human Mer was no less than 7.00; on Human Met, less than 6.52.

Turning to `COCCOc1cc2nccc(Oc3ccc(NC(=O)c4c(C)n(C)c(C)c(/C=C/C5CC5)c4=O)cc3F)c2nc1OC` [Compound 51, 5-[(E)-2-Cyclopropylethenyl]-N-[3-fluoro-4-[[6-methoxy-7-(2-methoxyethoxy)-1,5-naphthyridin-4-yl]oxy]phenyl]-1,2,6-trimethyl-4-oxopyridine-3-carboxamide], the pIC50 against Human Mer and at Human Met was no less than 7.00 throughout.

`COc1cc2nccc(Oc3ccc(NC(=O)c4c5n(c(C)c(C6=CCOCC6)c4=O)CCOC5)cc3F)c2nc1OC` [Compound 79, 7-(3,6-Dihydro-2H-pyran-4-yl)-N-[4-[(6,7-dimethoxy-1,5-naphthyridin-4-yl)oxy]-3-fluorophenyl]-6-methyl-8-oxo-3,4-dihydro-1H-pyrido[2,1-c][1,4]oxazine-9-carboxamide]: the negative logarithm of the IC50 (pIC50) against Human Mer and at Human Met was no less than 7.00 throughout.

For the compound `COc1cc2nccc(Oc3ccc(NC(=O)c4c5n(c(C)c(C6=CCCCC6)c4=O)CCOC5)cc3F)c2nc1OC` [Compound 80, 7-(Cyclohexen-1-yl)-N-[4-[(6,7-dimethoxy-1,5-naphthyridin-4-yl)oxy]-3-fluorophenyl]-6-methyl-8-oxo-3,4-dihydro-1H-pyrido[2,1-c][1,4]oxazine-9-carboxamide], the pIC50 at Human Mer and at Human Met was no less than 7.00 in each case.

Consider `COc1cnc2c(Oc3ccc(NC(=O)c4c(C)n(C)c(C)c(C#N)c4=O)cc3F)ccnc2c1` [Compound 81, 5-Cyano-N-[3-fluoro-4-[(7-methoxy-1,5-naphthyridin-4-yl)oxy]phenyl]-1,2,6-trimethyl-4-oxopyridine-3-carboxamide], for which the negative-log IC50 (pIC50) on Human Mer and on Human Met was less than 6.52 each time.

As to `COc1cc2nccc(Oc3ccc(NC(=O)c4c(C)n(C)c(C)c(C#N)c4=O)cc3)c2nc1OC` [Compound 82, 5-Cyano-N-[4-[(6,7-dimethoxy-1,5-naphthyridin-4-yl)oxy]phenyl]-1,2,6-trimethyl-4-oxopyridine-3-carboxamide], the pIC50 against Human Mer and on Human Met was less than 6.52 throughout.

What is called pIC50 is −log10 of the IC50, conventionally taken in molar units.
